This is an account of results in patent publication US6498125B2, “Pyridine ketones useful as herbicides” (Syngenta Participations AG, priority 1998, dated 2002).

Experiment [1] relates to Monocotyledonous and dicotyledonous test plants. Nature of the experiment: Example B2: post-emergence herbicidal action, 2 kg of AS/ha. The format is in vivo. On the set-up: key: 1 = complete damage, 9 = no effect. The settings on record: 4- to 6-leaf stage, about 18 days; for post-emergence action rating, Avena: test plant Avena; for post-emergence action rating, Setaria: test plant Setaria; for post-emergence action rating, Sinapis: test plant Sinapis; for post-emergence action rating, Solanum: test plant Solanum; for post-emergence action rating, Stellaria: test plant Stellaria. On the procedure:
Monocotyledonous and dicotyledonous test plants are grown in plastic pots with standard soil in a greenhouse and, in the 4- to 6-leaf stage, are sprayed with an aqueous suspension of the test substances of the formula 1, prepared from a 25% wettable powder (Example F3, b) according to WO 97134485) or with an emulsion of the test substances of the formula I, prepared from a 25% emulsion concentrate (Example F1, c) according to WO 97/34485), corresponding to a dosage of 2 kg of AS/ha (500 l of water/ha). The test plants are then grown further under optimum conditions in a greenhouse. After a test period of about 18 days, the test is evaluated with a nine-level scale of rating (1=complete damage, 9=no effect). Ratings of 1 to 4 (in particular 1 to 3) mean good to very good herbicidal action. In this test, the compounds of the formula I show strong herbicidal action.

Experiment [2] has the same test system. As to the kind of experiment: Example B1: pre-emergence herbicidal action, 2 kg of AS/ha. The format is in vivo. The settings on record: 3 weeks, scale 1-9; for pre-emergence action rating, Avena: test plant Avena; for pre-emergence action rating, Cyperus: test plant Cyperus; for pre-emergence action rating, Setaria: test plant Setaria; for pre-emergence action rating, Sinapis: test plant Sinapis; for pre-emergence action rating, Solanum: test plant Solanum; for pre-emergence action rating, Stellaria: test plant Stellaria. On the procedure: Monocotyledonous and dicotyledonous test plants are sown in standard soil in plastic pots. Immediately after sowing, the test substances are sprayed on (500 l of water/ha) as an aqueous suspension (prepared from a 25% wettable powder (Example F3, b) according to WO 97/34485) or emulsion (prepared from a 25% emulsion concentrate (Example F1, c)), corresponding to a dosage of 2 kg of AS/ha. The test plants are then grown under optimum conditions in a greenhouse. After a test period of 3 weeks, the test is evaluated with a nine-level scale of ratings (1=complete damage, 9=no effect). Ratings of 1 to 4 (in particular 1 to 3) mean good to very good herbicidal action.

With `O=C(C1=C(O)C2CCC(C2)C1=O)c1ccc(C(F)(F)F)nc1` (stereo not drawn) [Compound 1.001], in experiment [1] (scale 1-9), the “post-emergence action rating, Avena” value is 3; the “post-emergence action rating, Setaria” value is 2; the “post-emergence action rating, Sinapis” value was determined as 1; the “post-emergence action rating, Solanum” value stood at 2. Besides, the “post-emergence action rating, Stellaria” value in experiment [1] (scale 1-9) turned out to be 2.

On to `O=C(C1=C(O)C2CCC(C2)C1=O)c1ccc(C(F)(F)F)nc1` (stereo not drawn) [Compound 1.01], for which, in experiment [2], the “pre-emergence action rating, Avena” value is 2; the “pre-emergence action rating, Cyperus” value is given as 1; the “pre-emergence action rating, Setaria” value amounted to 1; the “pre-emergence action rating, Sinapis” value worked out at 1. For the same compound, in experiment [2], the “pre-emergence action rating, Solanum” value turned out to be 1 and the “pre-emergence action rating, Stellaria” value amounted to 2. In addition, in experiment [1] (scale 1-9, listed as 1.010), the “post-emergence action rating, Avena” value turned out to be 2 and the “post-emergence action rating, Stellaria” value came out at 4. In addition, in experiment [1] (scale 1-9), the “post-emergence action rating, Setaria” value came to 2; the “post-emergence action rating, Sinapis” value was 1; the “post-emergence action rating, Solanum” value was found to be 2.

For the compound `Cc1nc(C(F)(F)F)ccc1C(=O)C1=C(OC(=O)C(C)(C)C)C2CCC(C2)C1=O` (stereo not drawn) [Compound 1.4], in experiment [2], the “pre-emergence action rating, Avena” value was 2; the “pre-emergence action rating, Cyperus” value is given as 1; the “pre-emergence action rating, Setaria” value was 1; the “pre-emergence action rating, Sinapis” value came to 2. Also, in experiment [2], the “pre-emergence action rating, Solanum” value was found to be 1 and the “pre-emergence action rating, Stellaria” value came to 2. In experiment [1] (scale 1-9), the “post-emergence action rating, Avena” value is recorded as 2; the “post-emergence action rating, Setaria” value came out at 2; the “post-emergence action rating, Sinapis” value is recorded as 1; the “post-emergence action rating, Solanum” value came to 2. The “post-emergence action rating, Stellaria” value in experiment [1] (scale 1-9) worked out at 2.

With `O=C(C1=C(O)C2CCC(C2)C1=O)c1ccc(C(F)(F)F)nc1C(F)F` (stereo not drawn) [Compound 1.005], in experiment [2], the “pre-emergence action rating, Avena” value was 4; the “pre-emergence action rating, Cyperus” value is 1; the “pre-emergence action rating, Setaria” value is recorded as 1; the “pre-emergence action rating, Sinapis” value is on record as 1. Also, in experiment [2], the “pre-emergence action rating, Solanum” value was 1 and the “pre-emergence action rating, Stellaria” value is listed as 1. Further, in experiment [1] (scale 1-9), the “post-emergence action rating, Avena” value turned out to be 2; the “post-emergence action rating, Setaria” value is given as 2; the “post-emergence action rating, Sinapis” value stood at 1; the “post-emergence action rating, Solanum” value is 2. In experiment [1] (scale 1-9), the “post-emergence action rating, Stellaria” value stood at 2.

With `Cc1c(C(=O)C2=C(O)C3CCC(C3)C2=O)ccc(C(F)(F)F)[n+]1[O-]` (stereo not drawn) [Compound 1.06], in experiment [2], the “pre-emergence action rating, Avena” value came to 2; the “pre-emergence action rating, Cyperus” value was found to be 1; the “pre-emergence action rating, Setaria” value amounted to 1; the “pre-emergence action rating, Sinapis” value is listed as 2. For the same compound, in experiment [2], the “pre-emergence action rating, Solanum” value is 1 and the “pre-emergence action rating, Stellaria” value is recorded as 1. Further, in experiment [1] (scale 1-9), the “post-emergence action rating, Avena” value turned out to be 2; the “post-emergence action rating, Setaria” value is on record as 1; the “post-emergence action rating, Sinapis” value is recorded as 1; the “post-emergence action rating, Solanum” value came to 1. Moreover, the “post-emergence action rating, Stellaria” value in experiment [1] (scale 1-9) came out at 2.

In the case of `O=C(C1=C(O)C2CCC(C2)C1=O)c1ccc(C(F)(F)F)nc1C(F)(F)F` (stereo not drawn) [Compound 1.008], in experiment [1] (scale 1-9), the “post-emergence action rating, Avena” value turned out to be 2; the “post-emergence action rating, Setaria” value was 2; the “post-emergence action rating, Sinapis” value was 1; the “post-emergence action rating, Solanum” value worked out at 2. Moreover, in experiment [1] (scale 1-9), the “post-emergence action rating, Stellaria” value was 2.

`Cc1nc(C(F)(F)F)ccc1C(=O)C1=C(O)C2CCC(C2)C1=O` (stereo not drawn) [Compound 1.009, 4-hydroxy-3-(2-methyl-6-trifluoromethylpyridine-3-carbonyl)bicyclo[3.2.1]oct-3-en-2-one]: in experiment [2], the “pre-emergence action rating, Avena” value is given as 2; the “pre-emergence action rating, Cyperus” value is on record as 1; the “pre-emergence action rating, Setaria” value was determined as 1; the “pre-emergence action rating, Sinapis” value is given as 2. Besides, in experiment [2], the “pre-emergence action rating, Solanum” value was found to be 1 and the “pre-emergence action rating, Stellaria” value amounted to 2. Besides, in experiment [1] (scale 1-9), the “post-emergence action rating, Avena” value is reported as 1; the “post-emergence action rating, Setaria” value came out at 1; the “post-emergence action rating, Sinapis” value was 1; the “post-emergence action rating, Solanum” value was found to be 1. The “post-emergence action rating, Stellaria” value in experiment [1] (scale 1-9) is recorded as 2.

In the case of `CC(C)c1nc(C(F)(F)F)ccc1C(=O)C1=C(O)C2CCC(C2)C1=O` (stereo not drawn) [Compound 1.011], in experiment [2], the “pre-emergence action rating, Avena” value stood at 2; the “pre-emergence action rating, Cyperus” value was 1; the “pre-emergence action rating, Setaria” value is given as 1; the “pre-emergence action rating, Sinapis” value was found to be 1. Moreover, in experiment [2], the “pre-emergence action rating, Solanum” value worked out at 1 and the “pre-emergence action rating, Stellaria” value is listed as 1. In experiment [1] (scale 1-9), the “post-emergence action rating, Avena” value is 2; the “post-emergence action rating, Setaria” value amounted to 2; the “post-emergence action rating, Sinapis” value amounted to 2; the “post-emergence action rating, Solanum” value was determined as 2. Besides, the “post-emergence action rating, Stellaria” value in experiment [1] (scale 1-9) is given as 2.

As for `CCCc1nc(C(F)(F)F)ccc1C(=O)C1=C(O)C2CCC(C2)C1=O` (stereo not drawn) [Compound 1.012], in experiment [1] (scale 1-9), the “post-emergence action rating, Avena” value is listed as 3; the “post-emergence action rating, Setaria” value is given as 2; the “post-emergence action rating, Sinapis” value was 1; the “post-emergence action rating, Solanum” value is 2. In addition, the “post-emergence action rating, Stellaria” value in experiment [1] (scale 1-9) turned out to be 2.

Consider `CS(=O)(=O)Cc1nc(C(F)(F)F)ccc1C(=O)C1=C(O)C2CCC(C2)C1=O` (stereo not drawn) [Compound 1.026], for which, in experiment [1] (scale 1-9), the “post-emergence action rating, Avena” value stood at 3; the “post-emergence action rating, Setaria” value was 1; the “post-emergence action rating, Sinapis” value worked out at 1; the “post-emergence action rating, Solanum” value is recorded as 1. For the same compound, the “post-emergence action rating, Stellaria” value in experiment [1] (scale 1-9) was found to be 2.

In the case of `C#CCOc1nc(C(F)(F)F)ccc1C(=O)C1=C(O)C2CCC(C2)C1=O` (stereo not drawn) [Compound 1.048], in experiment [1] (scale 1-9), the “post-emergence action rating, Avena” value amounted to 2; the “post-emergence action rating, Setaria” value was 1; the “post-emergence action rating, Sinapis” value was 1; the “post-emergence action rating, Solanum” value turned out to be 1. Moreover, the “post-emergence action rating, Stellaria” value in experiment [1] (scale 1-9) is reported as 2.

As for `Cc1cc(C(F)(F)F)ncc1C(=O)C1=C(O)C2CCC(C2)C1=O` (stereo not drawn) [Compound 1.362], in experiment [1] (scale 1-9), the “post-emergence action rating, Avena” value stood at 3; the “post-emergence action rating, Setaria” value was determined as 2; the “post-emergence action rating, Sinapis” value stood at 1; the “post-emergence action rating, Solanum” value is given as 2. Further, the “post-emergence action rating, Stellaria” value in experiment [1] (scale 1-9) was found to be 2.

For the compound `CCc1nc(C(F)(F)F)ccc1C(=O)C1=C(O)C(C)(C)ON(C)C1=O` [Compound 4.01], in experiment [1] (scale 1-9), the “post-emergence action rating, Avena” value was 3; the “post-emergence action rating, Setaria” value turned out to be 3; the “post-emergence action rating, Sinapis” value was determined as 2; the “post-emergence action rating, Solanum” value stood at 2. Further, in experiment [1] (scale 1-9), the “post-emergence action rating, Stellaria” value is given as 2.

Consider `CCC1=CC(C)(C)C(O)=C(C(=O)c2ccc(C(F)(F)F)nc2C)C1=O` [Compound 5.081], for which, in experiment [1] (scale 1-9), the “post-emergence action rating, Avena” value worked out at 3; the “post-emergence action rating, Setaria” value came to 2; the “post-emergence action rating, Sinapis” value came to 1; the “post-emergence action rating, Solanum” value stood at 1. Further, in experiment [1] (scale 1-9), the “post-emergence action rating, Stellaria” value turned out to be 2.

For `Cc1nc(C(F)(F)F)ccc1C(=O)C1=C(O)C(C)(C)C=CC1=O` [Compound 5.085], in experiment [1] (scale 1-9), the “post-emergence action rating, Avena” value was 3; the “post-emergence action rating, Setaria” value came to 2; the “post-emergence action rating, Sinapis” value came out at 1; the “post-emergence action rating, Solanum” value is given as 2. The “post-emergence action rating, Stellaria” value in experiment [1] (scale 1-9) was found to be 2.
